In article PMC10350924, “Design, Synthesis, and Pharmacological Characterization of a Potent Soluble Epoxide Hydrolase Inhibitor for the Treatment of Acute Pancreatitis” (Journal of Medicinal Chemistry, 2023):

Experiments:
[1] = UGTs/CYPs dual-activity mouse liver microsomal stability; assay type: in vitro ADME; settings: for UGTs/CYPs dual-activity mouse liver microsomal stability: 5 μM, NADPH + UDP-GlcUA; for half-life at 5 µM / microsomal CLint at 1 h, 5 µM / half-life at 1 h, 5 µM: CD-1, mouse liver microsomes; for half-life at 5 µM / half-life at 1 h, 5 µM: 0.693/k, read-out: in vitro half-life; for microsomal CLint at 1 h, 5 µM: read-out: microsomal intrinsic clearance (CLint,micr)
Method: Initially, the chemical stability of the compounds was studied in phosphate buffer at pH 7.4. […] The same stability was evident in mouse plasma at two different time points (1 and 2 h, Table 2). In addition, all the compounds were subjected to an in vitro microsomal stability assay. In this assay, the metabolism of the parent compound over time (up to 60 min) was measured by liquid chromatography–mass spectrometry (LC–MS) in the presence of CYP450 and UGTs (uridine 5′-diphospho-glucuronosyltransferases) microsomal systems. The measurement of hepatic metabolism also allowed the determination of different pharmacokinetic parameters such as in vitro intrinsic clearance (CLint,micr) and to predict in vivo intrinsic clearance (CLint). The predicted in vivo CLint values were calculated using a microsomal protein value of 45 mg per gram of liver tissue and 87 g of liver per kg of body weight. The microsomal stability assay was validated using testosterone (low stability in the presence of NADPH), 2-naphthol (low stability using NADPH and UDPGA cofactors), and 3-(α-acetonylbenzyl)-4-hydroxy coumarin (high stability in dual-activity assay) as positive controls. To detect nonspecific protein binding or heat instability, the compounds were incubated without cofactors (negative control). Moreover, since microsomal concentrations > 2 mg mL^–1 are not recommended due to a potential negative impact of increased nonspecific binding on the rate of metabolism,[25] in our assay we used a low concentration of liver microsomes (0.5 mg mL^–1).
For microsomal stability assay, 25 μL of 5 mg mL^–1 mouse (CD-1) microsomes (Thermo Fisher Scientific, Bremen, Germany) were preincubated for 5 min at 37 °C with alamethicin and 2.5 μL of each sample (5 μM). The reaction started by adding a 50 μL mixture of 10 mM NADPH and UDP-GlcUA as cofactors (1:1 v/v) and was carried out at 37 °C for 15, 30, and 60 min in a Thermomixer comfort. The reaction was stopped by the addition of 200 μL of ice-cold methanol containing IS, and then samples were centrifuged at 14,680 rpm at 25 °C for 7 min (Eppendorf microcentrifuge 5424, Hamburg, Germany). The supernatants were collected and injected in LC-MS.
The control at 0 min was obtained by the addition of the organic solvent immediately after incubation with microsomes. Testosterone, 2-naphthol, and 3-(α-acetonylbenzyl)-4-hydroxy coumarin were used as the positive controls, while the negative control was prepared by incubation for up to 60 min without cofactors. The extent of metabolism is expressed as a percentage of the parent compound turnover. All experiments were performed in triplicate.

Human recombinant sEH = target: T1, Human recombinant sEH (Homo sapiens, UniProt P34913); experiment: Cell-free sEH activity (PHOME fluorescence); assay type: biochemical; settings: human isolated sEH
T1 construct: made in house; host or cells: Sf9 insect cells (recombinant baculovirus)
T1 sequence (P34913 1-555): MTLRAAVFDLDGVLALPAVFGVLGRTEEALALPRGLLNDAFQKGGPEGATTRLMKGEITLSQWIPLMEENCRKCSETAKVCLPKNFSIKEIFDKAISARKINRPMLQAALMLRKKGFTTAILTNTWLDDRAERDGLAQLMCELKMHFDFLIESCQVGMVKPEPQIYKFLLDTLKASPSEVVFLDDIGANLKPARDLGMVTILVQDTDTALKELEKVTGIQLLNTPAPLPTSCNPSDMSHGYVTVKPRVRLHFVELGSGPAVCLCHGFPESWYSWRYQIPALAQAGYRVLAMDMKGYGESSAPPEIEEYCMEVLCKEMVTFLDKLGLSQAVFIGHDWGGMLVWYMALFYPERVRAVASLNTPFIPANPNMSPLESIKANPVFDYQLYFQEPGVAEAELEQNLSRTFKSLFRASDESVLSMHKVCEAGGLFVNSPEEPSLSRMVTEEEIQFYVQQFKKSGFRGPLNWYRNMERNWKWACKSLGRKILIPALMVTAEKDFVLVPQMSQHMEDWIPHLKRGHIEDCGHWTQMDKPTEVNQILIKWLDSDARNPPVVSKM
Method: Human recombinant sEH was expressed in Sf9 insect cells and purified by affinity chromatography. […] Elution with 4-fluorochalcone oxide in PBS pH 7.4 with 1 mM dithiothreitol and 1 mM EDTA yielded sEH, which was dialyzed and concentrated. Purified sEH (60 ng) in 25 mM Tris HCl pH 7 with 0.1 mg/mL bovine serum albumin (BSA) was preincubated with the vehicle (DMSO) or test compounds for 1 min at room temperature. The sEH substrate PHOME (20 μM, Cayman Chemicals) was added to start the enzymatic reaction, which was stopped after 60 min in the dark by the addition of ZnSO4 (200 mM).

Mouse plasma stability = assay type: in vitro ADME; settings: 37 °C, 5 μM
Method: Mouse plasma is warmed to 37 °C for 10 min, mixed, and centrifuged to pellet any aggregated protein. Biotransformation is initiated by adding 1.25 μL of compound solution (5 μM final incubation concentration), and the incubation was carried out at 37 °C for 120 min in a Thermomixer comfort (Eppendorf, Hamburg, Germany). At each specified time point (0, 60, and 120 min), compounds were removed into 200 μL of ice-cold methanol containing IS to stop degradation. Finally, the concentration of the test compound was quantified by LC-MS. All experiments were performed in triplicate. Procaine (low stability) and procainamide (high stability) were used as controls.

SMILES	UGTs/CYPs dual-activity mouse liver microsomal stability ([1]; 0.25 h, 0.5 mg mL–1 microsomes) [%]	UGTs/CYPs dual-activity mouse liver microsomal stability ([1]; 0.5 h) [%]	UGTs/CYPs dual-activity mouse liver microsomal stability ([1]; 1.0 h) [%]	half-life at 5 µM [1] [min]	microsomal CLint at 1 h, 5 µM [1] [µL/min/mg]	IC50 (Human recombinant sEH) [nM]	mouse plasma stability (Mouse plasma stability; 1.0 h) [%]	mouse plasma stability (Mouse plasma stability; 2.0 h) [%]	half-life at 1 h, 5 µM [1] [min]
O=C(Nc1ccc2c(c1)CCN2Cc1ccc(F)cc1)NC12C[C@H]3C[C@@H](C1)C[C@@H](C2)C3 [Compound 6, 1-((3S,5S,7S)-Adamantan-1-yl)-3-(1-(4-fluorobenzyl)indolin-5-yl)urea]	21.3 ± 0.9	10.9 ± 0.1	10.6 ± 0.1	20.4	67.8	7.22 ± 1.11	97.3 ± 0.7	100.7 ± 2.3	
O=C(NCC12C[C@H]3C[C@@H](C1)C[C@@H](C2)C3)Nc1ccc2c(ccn2Cc2ccc(F)cc2)c1 [Compound 27, 1-(((3R,5R,7R)-Adamantan-1-yl)methyl)-3-(1-(4-fluorobenzyl)-1H-indol-5-yl)urea]	8.4 ± 0.3	3.2 ± 1.0	2.1 ± 0.7	11.9	117	1.75 ± 0.593	100.3 ± 0.2	102.2 ± 4.8	
CC(C)c1ccc(Cn2ccc3cc(NC(=O)NCC45C[C@H]6C[C@@H](C4)C[C@@H](C5)C6)ccc32)cc1 [Compound 28, 1-(((3R,5R,7R)-Adamantan-1-yl)methyl)-3-(1-(4-isopropylbenzyl)-1H-indol-5-yl)urea]	91.5 ± 2.2	69.8 ± 2.9	53.1 ± 2.8		22	2 ± 1.1	98.4 ± 3.3	101.3 ± 3.8	62.9
O=C(NCC12C[C@H]3C[C@@H](C1)C[C@@H](C2)C3)Nc1ccc2c(ccn2CCc2ccc(F)cc2)c1 [Compound 30, 1-(((3R,5R,7R)-Adamantan-1-yl)methyl)-3-(1-(4-fluorophenethyl)-1H-indol-5-yl)urea]	16.6 ± 1.4	9.3 ± 0.6	5.7 ± 0.2	16	86.6	1.1 ± 0.4	96.2 ± 3.4	97.0 ± 2.3	
O=C(NCC12C[C@H]3C[C@@H](C1)C[C@@H](C2)C3)Nc1ccc2c(ccn2C(=O)c2ccc(F)cc2)c1 [Compound 36, 1-(((3R,5R,7R)-Adamantan-1-yl)methyl)-3-(1-(4-fluorobenzoyl)-1H-indol-5-yl)urea]	20.4 ± 1.8	11.9 ± 0.6	2.4 ± 0.4		118	2.6 ± 0.4	98.2 ± 2.0	96.2 ± 2.8	11.8
